Data reported in BigSolDB 2.1.

In the case of O=C1CCc2cc(OCCCCc3nnnn3C3CCCCC3)ccc2N1, the solubility (mole fraction) (in 1,4-dioxane, 288.15 K) is reported as 0.00525, the solubility (mole fraction) (in 1,4-dioxane, 293.15 K) is reported as 0.0061 and the solubility (mole fraction) (in 1,4-dioxane, 298.15 K) is reported as 0.00708. The solubility (mole fraction) (in 1,4-dioxane, 303.15 K) was 0.00819, the solubility (mole fraction) (in 1,4-dioxane, 308.15 K) was 0.0095 and the solubility (mole fraction) (in 1,4-dioxane, 313.15 K) was 0.0112. The solubility (mole fraction) (in 2-butanone, 273.15 K) was 0.00289, the solubility (mole fraction) (in 2-butanone, 278.15 K) was 0.00345 and the solubility (mole fraction) (in 2-butanone, 283.15 K) was 0.00399. For the same compound, the solubility (mole fraction) (in 2-butanone, 288.15 K) was 0.00464, the solubility (mole fraction) (in 2-butanone, 293.15 K) was 0.00529 and the solubility (mole fraction) (in 2-butanone, 298.15 K) was 0.006. The solubility (mole fraction) (in 2-butanone, 303.15 K) was 0.00677, the solubility (mole fraction) (in 2-butanone, 308.15 K) was 0.00774 and the solubility (mole fraction) (in 2-butanone, 313.15 K) was 0.00881. For the same compound, the solubility (mole fraction) (in acetone, 273.15 K) was 0.00168, the solubility (mole fraction) (in acetone, 278.15 K) was 0.00206 and the solubility (mole fraction) (in acetone, 283.15 K) was 0.00244. It also gave a solubility (mole fraction) (in acetone, 288.15 K) of 0.00287, a solubility (mole fraction) (in acetone, 293.15 K) of 0.00332 and a solubility (mole fraction) (in acetone, 298.15 K) of 0.00381. For the same compound, the solubility (mole fraction) (in acetone, 303.15 K) was 0.00433, the solubility (mole fraction) (in acetone, 308.15 K) was 0.00487 and the solubility (mole fraction) (in acetone, 313.15 K) was 0.00557. It also gave a solubility (mole fraction) (in acetonitrile, 273.15 K) of 0.0003, a solubility (mole fraction) (in acetonitrile, 278.15 K) of 0.000506 and a solubility (mole fraction) (in acetonitrile, 283.15 K) of 0.000705. For the same compound, the solubility (mole fraction) (in acetonitrile, 288.15 K) was 0.000935, the solubility (mole fraction) (in acetonitrile, 293.15 K) was 0.00119 and the solubility (mole fraction) (in acetonitrile, 298.15 K) was 0.00151. It also gave a solubility (mole fraction) (in acetonitrile, 303.15 K) of 0.00187, a solubility (mole fraction) (in acetonitrile, 308.15 K) of 0.00226 and a solubility (mole fraction) (in acetonitrile, 313.15 K) of 0.00273. It also gave a solubility (mole fraction) (in ethanol, 273.15 K) of 0.000168, a solubility (mole fraction) (in ethanol, 278.15 K) of 0.000282 and a solubility (mole fraction) (in ethanol, 283.15 K) of 0.000406. It also gave a solubility (mole fraction) (in ethanol, 288.15 K) of 0.00054, a solubility (mole fraction) (in ethanol, 293.15 K) of 0.00069 and a solubility (mole fraction) (in ethanol, 298.15 K) of 0.000847. For the same compound, the solubility (mole fraction) (in ethanol, 303.15 K) was 0.00102, the solubility (mole fraction) (in ethanol, 308.15 K) was 0.00122 and the solubility (mole fraction) (in ethanol, 313.15 K) was 0.00144. The solubility (mole fraction) (in ethyl acetate, 273.15 K) was 0.000115, the solubility (mole fraction) (in ethyl acetate, 278.15 K) was 0.000205 and the solubility (mole fraction) (in ethyl acetate, 283.15 K) was 0.00031. It also gave a solubility (mole fraction) (in ethyl acetate, 288.15 K) of 0.000428, a solubility (mole fraction) (in ethyl acetate, 293.15 K) of 0.000556 and a solubility (mole fraction) (in ethyl acetate, 298.15 K) of 0.000704. For the same compound, the solubility (mole fraction) (in ethyl acetate, 303.15 K) was 0.000861, the solubility (mole fraction) (in ethyl acetate, 308.15 K) was 0.00102 and the solubility (mole fraction) (in ethyl acetate, 313.15 K) was 0.00119. For the same compound, the solubility (mole fraction) (in isopropanol, 273.15 K) was 8.4e-05, the solubility (mole fraction) (in isopropanol, 278.15 K) was 0.000155 and the solubility (mole fraction) (in isopropanol, 283.15 K) was 0.000233. The solubility (mole fraction) (in isopropanol, 288.15 K) was 0.000324, the solubility (mole fraction) (in isopropanol, 293.15 K) was 0.000421 and the solubility (mole fraction) (in isopropanol, 298.15 K) was 0.000543. The solubility (mole fraction) (in isopropanol, 303.15 K) was 0.000683, the solubility (mole fraction) (in isopropanol, 308.15 K) was 0.000833 and the solubility (mole fraction) (in isopropanol, 313.15 K) was 0.000981. For the same compound, the solubility (mole fraction) (in methanol, 273.15 K) was 0.000258, the solubility (mole fraction) (in methanol, 278.15 K) was 0.00041 and the solubility (mole fraction) (in methanol, 283.15 K) was 0.000573. For the same compound, the solubility (mole fraction) (in methanol, 288.15 K) was 0.000754, the solubility (mole fraction) (in methanol, 293.15 K) was 0.000955 and the solubility (mole fraction) (in methanol, 298.15 K) was 0.00117. For the same compound, the solubility (mole fraction) (in methanol, 303.15 K) was 0.00141, the solubility (mole fraction) (in methanol, 308.15 K) was 0.00166 and the solubility (mole fraction) (in methanol, 313.15 K) was 0.00193. It also gave a solubility (mole fraction) (in n-butanol, 273.15 K) of 0.000437, a solubility (mole fraction) (in n-butanol, 278.15 K) of 0.000656 and a solubility (mole fraction) (in n-butanol, 283.15 K) of 0.000907. For the same compound, the solubility (mole fraction) (in n-butanol, 288.15 K) was 0.00119, the solubility (mole fraction) (in n-butanol, 293.15 K) was 0.0015 and the solubility (mole fraction) (in n-butanol, 298.15 K) was 0.00184. The solubility (mole fraction) (in n-butanol, 303.15 K) was 0.00222, the solubility (mole fraction) (in n-butanol, 308.15 K) was 0.00263 and the solubility (mole fraction) (in n-butanol, 313.15 K) was 0.00307. For the same compound, the solubility (mole fraction) (in n-propanol, 273.15 K) was 0.000206, the solubility (mole fraction) (in n-propanol, 278.15 K) was 0.000334 and the solubility (mole fraction) (in n-propanol, 283.15 K) was 0.000487. It also gave a solubility (mole fraction) (in n-propanol, 288.15 K) of 0.000634, a solubility (mole fraction) (in n-propanol, 293.15 K) of 0.000813 and a solubility (mole fraction) (in n-propanol, 298.15 K) of 0.00098. The solubility (mole fraction) (in n-propanol, 303.15 K) was 0.00116, the solubility (mole fraction) (in n-propanol, 308.15 K) was 0.00136 and the solubility (mole fraction) (in n-propanol, 313.15 K) was 0.0016.
